Experimental data as given in EP0196515A1, “Photodynamic inactivation of virus in therapeutic protein compositions” (BAXTER TRAVENOL LABORATORIES, INC., priority 1985, dated 1986).

Assays:
[1] = target: T1, Factor VIII (Homo sapiens, UniProt P00451); experiment: Factor VIII C activity, one-stage activated partial thromboplastin time assay (AHF product after photosensitizer and light)
T1 sequence (P00451 20-1332 limits assumed): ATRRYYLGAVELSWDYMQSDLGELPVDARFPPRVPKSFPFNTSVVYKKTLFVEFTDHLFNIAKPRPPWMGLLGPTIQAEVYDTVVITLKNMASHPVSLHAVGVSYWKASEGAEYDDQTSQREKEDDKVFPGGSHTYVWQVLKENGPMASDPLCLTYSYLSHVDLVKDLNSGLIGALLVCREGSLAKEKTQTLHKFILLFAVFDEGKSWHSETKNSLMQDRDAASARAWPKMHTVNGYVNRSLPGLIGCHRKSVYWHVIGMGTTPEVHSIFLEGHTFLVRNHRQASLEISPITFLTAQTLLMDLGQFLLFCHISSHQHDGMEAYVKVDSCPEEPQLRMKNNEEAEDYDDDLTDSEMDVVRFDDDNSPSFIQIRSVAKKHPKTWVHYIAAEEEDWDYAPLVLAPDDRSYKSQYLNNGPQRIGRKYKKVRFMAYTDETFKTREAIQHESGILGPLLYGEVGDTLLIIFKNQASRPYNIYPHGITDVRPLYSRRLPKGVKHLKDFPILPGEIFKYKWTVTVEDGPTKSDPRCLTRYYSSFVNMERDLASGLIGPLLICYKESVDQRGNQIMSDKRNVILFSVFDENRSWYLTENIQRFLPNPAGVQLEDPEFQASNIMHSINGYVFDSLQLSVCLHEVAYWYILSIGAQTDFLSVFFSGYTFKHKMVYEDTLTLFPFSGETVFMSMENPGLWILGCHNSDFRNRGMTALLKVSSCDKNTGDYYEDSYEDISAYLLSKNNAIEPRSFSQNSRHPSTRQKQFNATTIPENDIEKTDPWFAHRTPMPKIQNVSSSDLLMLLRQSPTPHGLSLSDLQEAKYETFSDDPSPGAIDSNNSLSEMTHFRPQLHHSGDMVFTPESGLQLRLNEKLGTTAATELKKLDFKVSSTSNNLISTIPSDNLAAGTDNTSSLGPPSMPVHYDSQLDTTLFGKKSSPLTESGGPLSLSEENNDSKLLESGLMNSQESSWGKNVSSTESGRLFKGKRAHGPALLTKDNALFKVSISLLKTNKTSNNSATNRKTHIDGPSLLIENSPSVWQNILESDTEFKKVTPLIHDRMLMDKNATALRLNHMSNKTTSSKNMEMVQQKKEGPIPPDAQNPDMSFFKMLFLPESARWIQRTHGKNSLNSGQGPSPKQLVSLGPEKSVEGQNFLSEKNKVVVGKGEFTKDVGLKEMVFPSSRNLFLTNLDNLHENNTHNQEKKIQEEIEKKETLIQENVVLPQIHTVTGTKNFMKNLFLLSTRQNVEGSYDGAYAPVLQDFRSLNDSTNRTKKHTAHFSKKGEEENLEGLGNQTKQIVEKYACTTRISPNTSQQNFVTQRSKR
T1 sequence (P00451 1668-2351 limits assumed): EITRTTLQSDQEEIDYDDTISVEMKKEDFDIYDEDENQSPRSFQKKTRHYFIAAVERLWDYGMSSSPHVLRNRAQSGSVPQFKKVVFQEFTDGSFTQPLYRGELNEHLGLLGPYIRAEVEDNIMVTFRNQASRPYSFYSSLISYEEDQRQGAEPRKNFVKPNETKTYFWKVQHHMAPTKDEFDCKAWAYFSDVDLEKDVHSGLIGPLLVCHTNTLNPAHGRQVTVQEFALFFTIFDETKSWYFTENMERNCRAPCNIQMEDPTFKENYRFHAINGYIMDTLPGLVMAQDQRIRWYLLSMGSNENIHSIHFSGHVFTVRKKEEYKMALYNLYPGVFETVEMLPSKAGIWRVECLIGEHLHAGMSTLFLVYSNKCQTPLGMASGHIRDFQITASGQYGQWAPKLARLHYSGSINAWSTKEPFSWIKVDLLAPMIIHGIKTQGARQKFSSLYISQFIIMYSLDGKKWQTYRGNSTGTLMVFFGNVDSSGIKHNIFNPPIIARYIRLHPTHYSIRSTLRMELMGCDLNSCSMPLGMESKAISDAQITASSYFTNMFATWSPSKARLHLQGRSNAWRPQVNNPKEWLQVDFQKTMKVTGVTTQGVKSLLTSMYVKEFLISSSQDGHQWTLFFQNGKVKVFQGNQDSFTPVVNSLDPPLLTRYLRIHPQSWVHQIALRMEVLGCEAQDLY
Text: The mixture was then exposed to light of a defined wavelength for a specified period of time.
Several light sources were used. A U.V. light source derived from a high pressure mercury vapor quartz lamp (85 watts) was employed. This source provided a wide band of light in the 390 to 410 nm range. A filter was used to remove the radiation below 350 nm in wave length. Alternatively a super diazo blue fluorescent lamp was used which has a peak emission near the absorption peak of the porphyrins employed.
Factor VIII C and Factor IX activity was determined by the one-stage activated partial thromboplastin time assay using Kaolin as an activator and human Factor VIII or Factor IX deficient plasma as a substrate. […] It involves the addition of the test sample to Factor VIII or Factor IX deficient plasma and measuring the degree of correction of the clotting time. This is then compared to a curve constructed using various dilutions of a lyophilized concentrate (reference) of known potency. […] Both sample and refernce are prediluted in Factor VIII deficient substrate plasma to an approximate activity of 1 U/mL. From the percentage of the reference, the potency can be estimated.

[2] = system: Herpes Simplex virus; experiment: Photodynamic virus inactivation, plaque assay of virus infectivity; format: cell-based; conditions: AHF products; chlorpromazine 1 X 10^-4M; light for less than ten minutes; read-out: logs of marker virus inactivated
[3] = system: Vesicular stomatitis virus; experiment: microbe, parasite or virus in culture; format: cell-based; conditions: read-out: logs of marker virus inactivated
[4] = system: LAV reverse transcriptase; experiment: Photodynamic inactivation of LAV seeded into AHF, reverse transcriptase assay; format: biochemical; conditions: AHF seeded with LAV, Chlorpromazine 1 X 10^-4M, unfiltered Mercury Arc Lamp
Procedure: The following data supports photodynamic inactivation of LAV using indirect methods. AHF was seeded with LAV virus. In the first set of data, Protoporphyrin was added at a concentration of 5 X 10^-6M. The mixture was exposed to light ffrom a 65 watt Super Diazo Blue lamp at a distance of 10 cm. Albumin was added to the samples after inactivation to inhibit any inactivation from extraneous light. The product was lyophilized and subjected to a reverse transcriptase assay.
In the second set of data, LAV was seeded into an AHF composition. Chlorpromazine (1 X 10^-4M) was added as a photosensitize and the mixture was exposed to unfiltered light from an 85 watt high pressure mercury arc lamp at a distance of 10 cm. The product was lyophilized and analyzed for reverse transcriptase activity. Results are reported in counts per minute.

[5] = system: Sindbis; experiment: microbe, parasite or virus in culture; format: cell-based; conditions: read-out: logs of marker virus inactivated
[6] = Chlorpromazine 1x10^-4M, Mercury Arc Lamp, Sensitizer added-10 min light
[7] = Chlorpromazine 1x10^-5M, Mercury Arc Lamp, Sensitizer added-10 min light
[8] = Chlorpromazine 1x10^-5M, Mercury Arc Lamp, Sensitizer added-20 min light

In the case of CN(C)CCCN1c2ccccc2Sc2ccc(Cl)cc21 [Chlorpromazine, 10-(3-dimethyl-aminopropyl)-2-chlorphenothiazine], the “% Change (Ref: Bulk), Percent change in Factor VIII coagulant activity” value (“% Change (Ref: Bulk), Percent change” for short) [1, 6] is reported as -29%, the Units/ml [1, 6] is reported as 20.0 Units/ml and the Units/ml ([1]; Chlorpromazine 1x10^-4M, Sensitizer added-no light) is reported as 27.3 Units/ml. The “% Change (Ref: Bulk), Percent change” value [1, 7] was -23%, the Units/ml [1, 7] was 24.8 Units/ml and the “% Change (Ref: Bulk), Percent change” value [1, 8] was -43%. For the same compound, the Units/ml [1, 8] was 18.2 Units/ml, the Units/ml ([1]; Chlorpromazine 1x10^-5M, Sensitizer added-no light) was 30.1 Units/ml and the log reduction at 100 µM [2] was > 5. The log reduction at 100 µM [3] was > 5, the “C.P.M. (reverse transcriptase activity)” value ([4]; exposure 0 minutes) was 36,192 C.P.M and the “C.P.M. (reverse transcriptase activity)” value ([4]; exposure 5 minutes) was 27,100 C.P.M. For the same compound, the “C.P.M. (reverse transcriptase activity)” value ([4]; exposure 10 minutes) was 6,814 C.P.M, the “C.P.M. (reverse transcriptase activity)” value ([4]; exposure 20 minutes) was 4,742 C.P.M and the log reduction at 100 µM [5] was > 5.
